Where two headings read alike, the source gives them in different places. Marks after values point to notes of the source that are not given here.
How the values were obtained:
HepG2 cells = assay: Human hepatocellular carcinoma mouse model (HepG2 xenograft); assay type: in vivo, athymic nude male mice; details: 20 mg/kg q.d. per os for 15 consecutive days
Experimental: 3) In Vivo Studies (Table 36)
Human hepatocellular carcinoma mouse model was prepared by subcutaneously implanting HepG2 cells (1×10^7 cell/mL in sterile PBS), into the right flank of athymic nude male mice (HSD, 6-7 weeks old). When the tumor volume reached approximately 200 mm^3, mice were assigned randomly to either vehicle alone or ORB compounds treatment groups (six mice per group). Mice were treated with either vehicle (PEG400) or OR0720, OR0721, OR0811 (20 mg/kg q.d.; per os for 15 consecutive days).
Tumor volumes in mm^3 were determined three times a week with a digital caliper and calculated using the following formula: Tumor Volume (mm)=length (mm)×width (mm)×width (mm)×½. Body weight was measured three times a week, and mice were observed daily for monitoring signs of stress to detect possible toxicities. One-way ANOVA was used for statistical comparisons. Data were analyzed with Prism 5.0 b (GraphPad Software) by one-way ANOVA with Bonferroni post hoc. Tumor Growth Inhibition (TGI) is calculated as the percent decrease of tumor growth at the end of the study in the ORB compounds treatment groups in comparison to the vehicle alone treatment group.

HuH6 Clone 5 cell line = assay: In vitro cell proliferation assay (MTT), HuH6 Clone 5; assay type: cell-based; details: HUH-6-clone5, 72 h; read-out: EC50, anti-proliferative activity
Experimental: (§1) 2) In Vitro Cell Proliferation Assays (Table 22 to Table 35)
(§2) Cancer cell lines (5×10^3 cells per well) or HUVEC (1×10^4 cells per well) or HRMEC (1×10^4 cells per well) were distributed in 96-well plates and incubating in duplicate with escalating concentrations (10 nM to 3 μM) of compounds for 72 hr. Cell proliferation was measured using MTT (3[4,5-dimethylthiazol-2-yl]-2,5-diphenyltetrazolium bromide).

HuCCT1 cell line = assay: In vitro cell proliferation assay (MTT), HuCCT1; assay type: cell-based; details: Homo sapiens, HuCCT-1, 72 h; read-out: EC50, anti-proliferative activity
In short: (§3)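 Seed cells (HRMEC 1×10^4/well; cancer lines 5×10^3/well), add compounds at escalating concentrations from 10 nM to 3 μM in duplicate, incubate 72 hr, then measure proliferation with MTT.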

EGFR (ErbB1) T790M L858R = molecular target: T1, EGFR (ErbB1) T790M L858R (Homo sapiens, UniProt P00533, L858R/T790M); assay: In vitro kinase assay (Z'-LYTE), EGFR (ErbB1) T790M L858R; assay type: biochemical; details: read-out: % of inhibition of the kinase compared to the control
T1 construct: purchased Invitrogen
In short: (§4)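 Peptide/kinase mix and ATP (at apparent Km) were combined in kinase buffer with compound at 100 nM, or 10 μM against ABL and its T315I mutant. Non-phosphorylated peptide was then proteolytically cleaved, and donor-to-acceptor emission ratio gave the extent of phosphorylation.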

HUVEC = assay: In vitro cell proliferation assay (MTT), HUVEC; assay type: cell-based; details: Homo sapiens, read-out: EC50, anti-proliferative activity
In short: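 HUVEC cells were plated at 1×10^4 cells per well in 96-well plates and exposed in duplicate to increasing compound concentrations from 10 nM to 3 μM for 72 hr. Proliferation was then quantified with MTT (3[4,5-dimethylthiazol-2-yl]-2,5-diphenyltetrazolium bromide) to determine anti-proliferative activity.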

HuH7 cell line = assay: In vitro cell proliferation assay (MTT), HuH7; assay type: cell-based; details: Homo sapiens, Huh-7, 72 h; read-out: EC50, anti-proliferative activity
In short: as §3

A549 cell line = assay: In vitro cell proliferation assay (MTT), A549; assay type: cell-based; details: Homo sapiens, read-out: EC50, anti-proliferative activity
In short: as §3

PDGFRA (PDGFR alpha) = molecular target: T2, PDGFRA (PDGFR alpha) (Homo sapiens, UniProt P16234); assay: In vitro kinase assay (Z'-LYTE), PDGFRA; assay type: biochemical; details: read-out: % of inhibition of the kinase compared to the control
T2 construct: purchased Invitrogen
In short: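 Z'-LYTE FRET assays measure the ratio of protease-cleaved to uncleaved peptide, read as 400 nm-excited emission ratio, in 50 mM HEPES pH 7.5, 10 mM MgCl2, 1 mM EGTA, 0.01% BRIJ-35, 1% DMSO, at pre-determined apparent ATP Km. Compounds tested at 100 nM against VEGFR1 and PDGFRA, and at 10 μM against ABL and ABL T315I.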

HT29 cell line = assay: In vitro cell proliferation assay (MTT), HT29; assay type: cell-based; details: Homo sapiens, read-out: EC50, anti-proliferative activity
In short: as §3

BRAF = molecular target: T3, BRAF (Homo sapiens, UniProt P15056); assay: In vitro kinase assay (Z'-LYTE), BRAF; assay type: biochemical; details: read-out: % of inhibition of the kinase compared to the control
T3 construct: purchased Invitrogen
In short: as §4

MDA-MB-231 cell line = assay: In vitro cell proliferation assay (MTT), MDA-MB-231; assay type: cell-based; details: Homo sapiens, MDA-MB-231, 72 h; read-out: EC50, anti-proliferative activity
In short: as §3

EGFR (ErbB1) = molecular target: T4, EGFR (ErbB1) (Homo sapiens, UniProt P00533); assay: In vitro kinase assay (Z'-LYTE), EGFR (ErbB1); assay type: biochemical; details: read-out: % of inhibition of the kinase compared to the control
T4 construct: purchased Invitrogen
In short: as §4

HRMEC cells = assay: In vitro cell proliferation assay (MTT), HRMEC; assay type: cell-based; details: 72 h, read-out: EC50, anti-proliferative activity
Experimental: as §1, §2

Caki-2 = assay: In vitro cell proliferation assay (MTT), Caki-2; assay type: cell-based; details: Homo sapiens, CAKI-2, 72 h; read-out: EC50, anti-proliferative activity
Experimental: as §1, §2

HeLa cell line = assay: In vitro cell proliferation assay (MTT), HeLa; assay type: cell-based; details: Homo sapiens, 72 h, read-out: EC50, anti-proliferative activity
In short: as §3

HepG2 cell line = assay: In vitro cell proliferation assay (MTT), HepG2; assay type: cell-based; details: Homo sapiens, read-out: EC50, anti-proliferative activity
In short: as §3

PC3 cell line = assay: In vitro cell proliferation assay (MTT), PC3; assay type: cell-based; details: Homo sapiens, PC-3, 72 h; read-out: EC50, anti-proliferative activity
Experimental: as §1, §2

BxPC-3 cell line = assay: In vitro cell proliferation assay (MTT), BxPC-3; assay type: cell-based; details: Homo sapiens, read-out: EC50, anti-proliferative activity
Experimental: as §1, §2

H1975 cell line = assay: In vitro cell proliferation assay (MTT), H1975; assay type: cell-based; details: Homo sapiens, read-out: EC50, anti-proliferative activity
In short: as §3

KDR (VEGFR2) = molecular target: T5, KDR (VEGFR2) (Homo sapiens, UniProt P35968); assay: In vitro kinase assay (Z'-LYTE), KDR (VEGFR2); assay type: biochemical; details: read-out: % of inhibition of the kinase compared to the control
T5 construct: purchased Invitrogen
In short: as §4

SRC = molecular target: T6, SRC (Homo sapiens, UniProt P12931); assay: In vitro kinase assay (Z'-LYTE), SRC; assay type: biochemical; details: read-out: % of inhibition of the kinase compared to the control
T6 construct: purchased Invitrogen
In short: as §4

FGFR2 = molecular target: T7, FGFR2 (Homo sapiens, UniProt P21802); assay: In vitro kinase assay (Z'-LYTE), FGFR2; assay type: biochemical; details: read-out: % of inhibition of the kinase compared to the control
T7 construct: purchased Invitrogen
In short: as §4

ABL = molecular target: T8, ABL (Homo sapiens, UniProt P00519); assay: In vitro kinase assay (Z'-LYTE), ABL; assay type: biochemical; details: read-out: % of inhibition of the kinase compared to the control
T8 construct: purchased Invitrogen
Experimental: (§5) 1) In Vitro Kinase Assays (Table 10 to Table 21)
(§6) The inhibitory activity of the compounds on several kinases including BRAF, EGFR (ErbB1), EGFR (ErbB1) T790M L858R, FGFR2, KDR (VEGFR2), PDGFRA (PDGFR alpha), SRC and other was evaluated by Invitrogen using the Z′-LYTE® technology. Briefly, the Z′-LYTE® biochemical assay employs a fluorescence-based, coupled-enzyme format and is based on the differential sensitivity of phosphorylated and non-phosphorylated peptides to proteolytic cleavage. The peptide substrate is labeled with two fluorophores—one at each end—that make up a FRET pair. A ratiometric method, which calculates the ratio (the Emission Ratio) of donor emission to acceptor emission after excitation of the donor fluorophore at 400 nm, is used to quantitate reaction progress.
(§7) The compounds are screened in 1% DMSO (final) in the well. For 10 point titrations, 3-fold serial dilutions are conducted from the starting concentration. All Peptide/Kinase Mixtures are diluted to a 2× working concentration in the appropriate Kinase Buffer. All ATP Solutions are diluted to a 4× working concentration in Kinase Buffer (50 mM HEPES pH 7.5, 0.01% BRIJ-35, 10 mM MgCl2, 1 mM EGTA). ATP Km apparent is previously determined using a Z′-LYTE® assay.
(§8) Each compound was incubated at a concentration of 100 nM (excepted to test the activity against ABL and ABL T315I for which the compounds were incubated at a concentration of 10 μM) and the tables 10 to 21 summarize the results obtained showing the inhibitory power of a compound.

ABL T315I = molecular target: T9, ABL T315I (Homo sapiens, UniProt P00519, T315I); assay: In vitro kinase assay (Z'-LYTE), ABL T315I; assay type: biochemical; details: read-out: % of inhibition of the kinase compared to the control
T9 construct: purchased Invitrogen
Experimental: as §5, §6, §7, §8

FGFR1 = molecular target: T10, FGFR1 (Homo sapiens, UniProt P11362); assay: In vitro kinase assay (Z'-LYTE), FGFR1; assay type: biochemical; details: read-out: % of inhibition of the kinase compared to the control
T10 construct: purchased Invitrogen
Experimental: as §5, §6
as §7, with “assay. […]” for “assay.”

VEGFR1 = molecular target: T11, VEGFR1 (Homo sapiens, UniProt P17948); assay: In vitro kinase assay (Z'-LYTE), VEGFR1; assay type: biochemical; details: read-out: % of inhibition of the kinase compared to the control
T11 construct: purchased Invitrogen
Experimental: as §5, §6
as §7, with “assay. […]” for “assay.”

PDGFRB = molecular target: T12, PDGFRB (Homo sapiens, UniProt P09619); assay: In vitro kinase assay (Z'-LYTE), PDGFRB; assay type: biochemical; details: read-out: % of inhibition of the kinase compared to the control
T12 construct: purchased Invitrogen
Experimental: as §5, §6
as §7, with “assay. […]” for “assay.”

T3 sequence (P15056 whole entry): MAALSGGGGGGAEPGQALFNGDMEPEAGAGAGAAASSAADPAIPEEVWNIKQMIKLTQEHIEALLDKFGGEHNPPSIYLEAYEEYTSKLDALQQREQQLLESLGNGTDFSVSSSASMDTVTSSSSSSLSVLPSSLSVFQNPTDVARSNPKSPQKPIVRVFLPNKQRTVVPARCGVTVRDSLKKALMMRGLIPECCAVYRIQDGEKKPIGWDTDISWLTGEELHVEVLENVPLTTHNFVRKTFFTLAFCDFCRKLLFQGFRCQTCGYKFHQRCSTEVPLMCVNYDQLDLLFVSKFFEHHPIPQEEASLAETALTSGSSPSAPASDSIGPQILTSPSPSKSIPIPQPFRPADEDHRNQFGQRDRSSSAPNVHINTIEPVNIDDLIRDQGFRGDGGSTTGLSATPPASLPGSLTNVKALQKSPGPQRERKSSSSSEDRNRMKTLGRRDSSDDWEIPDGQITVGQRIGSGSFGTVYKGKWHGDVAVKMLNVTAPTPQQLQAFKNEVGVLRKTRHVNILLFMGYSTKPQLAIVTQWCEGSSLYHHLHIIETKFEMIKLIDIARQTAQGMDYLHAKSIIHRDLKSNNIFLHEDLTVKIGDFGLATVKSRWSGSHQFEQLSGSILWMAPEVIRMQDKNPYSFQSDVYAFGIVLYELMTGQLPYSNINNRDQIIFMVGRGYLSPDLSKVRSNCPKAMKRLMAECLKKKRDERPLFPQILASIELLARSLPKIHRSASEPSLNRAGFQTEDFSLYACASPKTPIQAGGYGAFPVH
T6 sequence (P12931 whole entry): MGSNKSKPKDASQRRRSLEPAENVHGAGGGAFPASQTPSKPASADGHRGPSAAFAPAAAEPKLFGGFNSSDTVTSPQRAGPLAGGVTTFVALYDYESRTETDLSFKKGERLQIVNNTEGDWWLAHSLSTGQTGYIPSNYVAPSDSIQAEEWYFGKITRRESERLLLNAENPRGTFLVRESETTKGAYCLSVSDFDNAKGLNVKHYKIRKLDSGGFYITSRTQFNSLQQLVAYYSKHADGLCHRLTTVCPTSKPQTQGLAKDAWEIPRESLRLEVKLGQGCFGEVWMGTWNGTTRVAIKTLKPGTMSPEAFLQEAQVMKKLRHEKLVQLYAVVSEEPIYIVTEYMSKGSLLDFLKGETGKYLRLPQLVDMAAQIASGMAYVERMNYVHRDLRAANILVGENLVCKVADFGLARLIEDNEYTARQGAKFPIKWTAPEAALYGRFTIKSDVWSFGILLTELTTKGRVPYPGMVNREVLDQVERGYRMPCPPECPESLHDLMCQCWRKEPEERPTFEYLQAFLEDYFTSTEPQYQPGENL
T7 sequence (P21802 22-821): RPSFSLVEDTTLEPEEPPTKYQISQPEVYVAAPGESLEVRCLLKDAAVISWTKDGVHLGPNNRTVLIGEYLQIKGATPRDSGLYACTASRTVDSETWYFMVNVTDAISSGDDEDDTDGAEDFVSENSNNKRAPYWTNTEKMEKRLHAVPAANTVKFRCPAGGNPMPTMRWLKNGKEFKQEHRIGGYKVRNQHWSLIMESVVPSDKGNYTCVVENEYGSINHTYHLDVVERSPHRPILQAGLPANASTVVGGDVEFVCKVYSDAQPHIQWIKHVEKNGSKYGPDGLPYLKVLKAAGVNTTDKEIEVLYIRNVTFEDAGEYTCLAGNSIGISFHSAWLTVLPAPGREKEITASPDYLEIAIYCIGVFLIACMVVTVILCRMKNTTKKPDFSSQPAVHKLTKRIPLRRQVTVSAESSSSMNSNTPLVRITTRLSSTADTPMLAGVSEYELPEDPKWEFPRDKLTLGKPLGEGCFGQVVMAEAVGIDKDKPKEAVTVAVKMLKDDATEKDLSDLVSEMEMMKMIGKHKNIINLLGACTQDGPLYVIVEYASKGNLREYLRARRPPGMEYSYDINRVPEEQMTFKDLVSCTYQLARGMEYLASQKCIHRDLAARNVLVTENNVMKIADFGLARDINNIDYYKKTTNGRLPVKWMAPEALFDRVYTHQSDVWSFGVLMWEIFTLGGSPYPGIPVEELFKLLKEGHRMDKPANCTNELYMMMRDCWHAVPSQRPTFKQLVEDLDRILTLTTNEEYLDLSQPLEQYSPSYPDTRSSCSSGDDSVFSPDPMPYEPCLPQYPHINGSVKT
T2 sequence (P16234 24-1089): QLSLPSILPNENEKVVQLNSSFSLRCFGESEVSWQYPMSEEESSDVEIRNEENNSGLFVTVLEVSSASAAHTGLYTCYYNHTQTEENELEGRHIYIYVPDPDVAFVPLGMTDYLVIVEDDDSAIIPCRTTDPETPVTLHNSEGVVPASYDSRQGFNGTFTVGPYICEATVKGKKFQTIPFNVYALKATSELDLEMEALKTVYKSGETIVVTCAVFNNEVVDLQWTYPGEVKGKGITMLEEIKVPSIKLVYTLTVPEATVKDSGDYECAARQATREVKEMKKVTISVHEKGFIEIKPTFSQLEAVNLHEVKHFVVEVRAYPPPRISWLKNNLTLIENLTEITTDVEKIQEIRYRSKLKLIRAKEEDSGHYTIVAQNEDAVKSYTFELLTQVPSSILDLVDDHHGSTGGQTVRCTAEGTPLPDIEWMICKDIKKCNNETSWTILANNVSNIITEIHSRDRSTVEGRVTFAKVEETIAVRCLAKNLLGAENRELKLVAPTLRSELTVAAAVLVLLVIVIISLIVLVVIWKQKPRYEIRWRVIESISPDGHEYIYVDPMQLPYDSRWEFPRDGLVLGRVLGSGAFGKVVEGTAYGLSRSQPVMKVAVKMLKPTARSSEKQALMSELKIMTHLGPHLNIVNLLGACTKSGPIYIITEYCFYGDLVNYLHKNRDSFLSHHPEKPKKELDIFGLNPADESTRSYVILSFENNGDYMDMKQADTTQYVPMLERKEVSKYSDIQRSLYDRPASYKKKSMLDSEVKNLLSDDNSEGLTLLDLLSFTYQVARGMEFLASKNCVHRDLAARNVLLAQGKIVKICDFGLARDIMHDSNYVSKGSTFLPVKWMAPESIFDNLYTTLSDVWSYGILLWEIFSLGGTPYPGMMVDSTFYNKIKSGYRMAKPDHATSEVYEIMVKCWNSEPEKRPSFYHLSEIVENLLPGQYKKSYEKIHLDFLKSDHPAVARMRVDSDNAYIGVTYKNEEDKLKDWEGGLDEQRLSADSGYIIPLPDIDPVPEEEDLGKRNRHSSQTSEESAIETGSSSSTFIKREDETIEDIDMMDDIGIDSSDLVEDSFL
T1 sequence (P00533 25-1210 T790M/L858R): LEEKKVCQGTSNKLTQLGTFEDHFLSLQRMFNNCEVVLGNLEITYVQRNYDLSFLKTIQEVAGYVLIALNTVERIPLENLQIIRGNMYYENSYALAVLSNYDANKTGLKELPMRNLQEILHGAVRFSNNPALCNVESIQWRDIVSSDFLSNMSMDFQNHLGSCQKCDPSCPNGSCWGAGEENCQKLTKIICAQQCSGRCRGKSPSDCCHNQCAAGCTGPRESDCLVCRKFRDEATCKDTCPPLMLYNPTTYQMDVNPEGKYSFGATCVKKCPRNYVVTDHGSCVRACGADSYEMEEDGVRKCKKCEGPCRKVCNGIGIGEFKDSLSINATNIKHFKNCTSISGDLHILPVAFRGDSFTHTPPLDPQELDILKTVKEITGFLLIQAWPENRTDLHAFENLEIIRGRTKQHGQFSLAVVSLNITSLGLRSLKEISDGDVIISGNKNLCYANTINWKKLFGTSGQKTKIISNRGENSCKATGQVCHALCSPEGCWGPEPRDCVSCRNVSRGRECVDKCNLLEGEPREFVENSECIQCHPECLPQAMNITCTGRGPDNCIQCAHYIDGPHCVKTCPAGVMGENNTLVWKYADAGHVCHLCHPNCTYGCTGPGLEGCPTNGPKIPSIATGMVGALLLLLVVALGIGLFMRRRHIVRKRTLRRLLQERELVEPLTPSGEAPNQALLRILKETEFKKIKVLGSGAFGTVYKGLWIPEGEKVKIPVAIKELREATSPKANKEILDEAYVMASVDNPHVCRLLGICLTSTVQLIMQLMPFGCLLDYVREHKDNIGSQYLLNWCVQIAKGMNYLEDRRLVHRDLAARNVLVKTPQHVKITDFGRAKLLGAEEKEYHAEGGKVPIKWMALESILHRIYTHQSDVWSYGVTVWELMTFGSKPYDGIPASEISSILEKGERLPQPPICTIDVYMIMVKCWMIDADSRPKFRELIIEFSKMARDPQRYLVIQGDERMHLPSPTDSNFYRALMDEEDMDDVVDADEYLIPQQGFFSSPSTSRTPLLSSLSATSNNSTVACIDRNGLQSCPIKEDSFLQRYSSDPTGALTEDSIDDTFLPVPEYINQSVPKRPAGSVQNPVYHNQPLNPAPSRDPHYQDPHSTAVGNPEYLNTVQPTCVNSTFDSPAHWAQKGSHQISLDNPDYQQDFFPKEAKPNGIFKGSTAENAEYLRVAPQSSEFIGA

| SMILES | inhibition at 0.1 µM (EGFR (ErbB1) T790M L858R) [%] | inhibition at 0.1 µM (PDGFRA (PDGFR alpha)) [%] | inhibition at 0.1 µM (BRAF) [%] | inhibition at 0.1 µM (EGFR (ErbB1)) [%] | inhibition at 0.1 µM (KDR (VEGFR2)) [%] | inhibition at 0.1 µM (SRC) [%] | inhibition at 0.1 µM (FGFR2) [%] | inhibition at 10 µM (ABL) [%] | EC50 (A549 cell line; A549, 72 hr, MTT) [nM] | inhibition at 10 µM (ABL T315I) [%] | inhibition at 0.1 µM (FGFR1) [%] | inhibition at 0.1 µM (VEGFR1) [%] | EC50 (BxPC-3 cell line; BxPC-3, 72 hr, MTT) [nM] | inhibition at 0.1 µM (PDGFRB) [%] | also measured |
| --- | --- | --- | --- | --- | --- | --- | --- | --- | --- | --- | --- | --- | --- | --- | --- |
| CC(=O)c1cc2cc(NCc3cc(NC(=O)c4ccc(CN5CCN(C)CC5)c(C(F)(F)F)c4)ccc3C)cnc2[nH]1 [OR0720, N-{3-[(2-Acetyl-1H-pyrrolo[2,3-b]pyridin-5-ylamino)-methyl]-4-methyl-phenyl}-4-(4-methyl-piperazin-1-ylmethyl)-3-trifluoromethyl-benzamide] | ≥ 50 | ≥ 50 | ≥ 50 | ≥ 50 | ≥ 50 | ≥ 50 | ≥ 50 | – | – | – | – | – | – | – | tumor growth in xenografted mice bearing human hepatocellular carcinoma tumors (HepG2 cells): significantly induced a decrease of tumor growth; Anti-tumor activity (Tumor Growth Inhibition—TGI) (HepG2 cells; mice, HepG2 xenograft, end of study vs vehicle): 66%*; EC50 (HuH6 Clone 5 cell line): 100 to 1000 nM; EC50 (HuCCT1 cell line): 100 to 1000 nM; EC50 (HUVEC; 72 h): ≤ 100 nM; EC50 (HuH7 cell line): 100 to 1000 nM; EC50 (A549 cell line; A549, 72 h): ≤ 100 nM; EC50 (HT29 cell line; HT-29, 72 h): ≤ 100 nM; EC50 (MDA-MB-231 cell line): ≤ 100 nM; EC50 (HRMEC cells): ≤ 100 nM; EC50 (Caki-2): 100 to 1000 nM; EC50 (HeLa cell line): 100 to 1000 nM; EC50 (HepG2 cell line; HepG2, 72 h): ≤ 100 nM; EC50 (PC3 cell line): ≤ 100 nM; EC50 (BxPC-3 cell line; BXPC-3, 72 h): ≤ 100 nM; EC50 (H1975 cell line; NCI-H1975, 72 h): 100 to 1000 nM |
| Cc1ccc(NC(=O)c2ccc(CN3CCN(C)CC3)c(C(F)(F)F)c2)cc1CNc1cnc2[nH]c(C(=O)O)cc2c1 [OR0623, 5-{2-Methyl-5-[4-(4-methyl-piperazin-1-ylmethyl)-3-trifluoromethyl-benzoylamino]-benzylamino}-1H-pyrrolo[2,3-b]pyridine-2-carboxylic acid] | ≥ 50 | ≥ 50 | < 50 | ≥ 50 | ≥ 50 | ≥ 50 | ≥ 50 | ≥ 50 | ≥ 1000 | ≥ 50 | ≥ 50 | ≥ 50 | ≥ 1000 | ≥ 50 | EC50 (HUVEC; 72 hr, MTT): ≥ 1000 nM; EC50 (HT29 cell line; HT-29, HT29, 72 hr, MTT): ≥ 1000 nM; EC50 (HepG2 cell line; HepG2, 72 hr, MTT): ≥ 1000 nM; EC50 (H1975 cell line; NCI-H1975, H1975, 72 hr, MTT): ≥ 1000 nM |
| Cc1cn(-c2cc(C(=O)Nc3ccc(C)c(CNc4cnc5[nH]c(C(=O)O)cc5c4)c3)cc(C(F)(F)F)c2)cn1 [OR0653, 5-{2-Methyl-5-[3-(4-methyl-imidazol-1-yl)-5-trifluoromethyl-benzoylamino]-benzylamino}-1H-pyrrolo[2,3-b]pyridine-2-carboxylic acid] | ≥ 50 | ≥ 50 | < 50 | ≥ 50 | ≥ 50 | ≥ 50 | < 50 | ≥ 50 | ≥ 1000 | < 50 | < 50 | ≥ 50 | ≥ 1000 | < 50 | – |
